Experimental data: patent US20140066410A1, “INHIBITORS OF BROMODOMAINS AS MODULATORS OF GENE EXPRESSION” (ICAHN SCHOOL OF MEDICINE AT MOUNT SINAI, priority 2011, published 2014)

Columns and labels:
CBP/p300 = experiment: Fluorescence-based lysine acetyltransferase assay with histone H3 peptide substrate; assay type: biochemical; conditions: data not shown
Description: The latter argues that ATM is active in presence of ischemin, which is consistent with our analysis using Western blots (FIG. 2B).

cardiomyocytes = experiment: TUNEL apoptosis assay in primary neonatal rat cardiomyocytes; assay type: cell-based
Protocol: The ability of ischemin to inhibit apoptosis in cardiomyocytes under DNA damage stress was evaluated. Primary neonatal rat cardiomyocytes were isolated and maintained in culture, then, treated with doxorubicin for 24 hours to induce DNA damage in the presence or absence of ischemin. The DNA damage induced by apoptosis was analyzed by the TUNEL (terminal deoxynucleotidyl transferase dUTP nick and end labeling) assay, in which a terminal deoxynucleotidyl transferase was used to identify 3′-OH of DNA generated by DNA fragmentation resulting from apoptosis, and then labels it with biotinylated dUTP. The latter was then detected with avidin-conjugated FITC for specific staining. Neonatal rat ventricular myocytes (NRVMs) were isolated by enzymatic dissociation of cardiac ventricle from 1-to-2-day-old Sprague-Dawley pups using the Worthington neonatal cardiomyocyte isolation system (Worthington). Briefly, the pups were anesthetized and their hearts were excised. The ventricular tissues were minced in ice cold HBSS and then digested with trypsin overnight at 4° C. followed by collagenase treatment for 45 min at 37° C. […] After treatment with compounds overnight and then doxorubicin for 24 hours, the intensities of luminecnce were read. […]

p53 = experiment: p21 luciferase assay (p53 inhibition) in U20S cells upon doxorubicin; assay type: cell-based
Protocol: U20S Cells were transfected with p21 luciferase (1 μg) and renilla luciferase (100 ng) vectors in 6 well plate format using Fugene 6 (Roche). Briefly, total of 1.1 micrograms of vector was incubated with […] of Fugene 6 reagent for 30 min. After 3-4 hours of transfection, cell were treated with compounds for overnight, and then exposed to 300 nanogram of doxorubicin for next 24 hours. In these experiments, DMSO, transfected cells with empty vector and cell without doxorubicin were used as controls. DMSO concentration is maintained at 0.01%. Transfected cells with doxorubicin treatment were used as positive control. The luciferase activity was estimated by following the manufacturer's instruction (Promega) in a luminometer. […] The inhibitory activity (IC50) of a small molecule on p21 luciferase activity was obtained from the average of three biological replicates using PRISM software.

caspase 3/7 = experiment: Caspase 3/7 assay in cardiomyocytes; assay type: cell-based, rat; conditions: doxorubicin-induced
Protocol: Neonatal rat ventricular myocytes (NRVMs) were isolated by enzymatic dissociation of cardiac ventricle from 1-to-2-day-old Sprague-Dawley pups using the Worthington neonatal cardiomyocyte isolation system (Worthington). Briefly, the pups were anesthetized and their hearts were excised. The ventricular tissues were minced in ice cold HBSS and then digested with trypsin overnight at 4° C. followed by collagenase treatment for 45 min at 37° C. Cells were collected by centrifugation at 800 rpm for 5 min and subsequently underwent two rounds of preplating on culture dishes to minimize nonmyocyte contamination. The enriched cardiomyocytes were cultured in DMEM/F12 nutrient mixture (Invitrogen) with 10% horse serum and 5% fetal calf serum (Invitrogen). After 48 hours, the medium was changed to DMEM/F12 containing 1% insulin, transferrin, and selenium media supplement (ITS; Invitrogen) and 0.1% BSA.
Caspase 3/7 and TUNEL assays were performed to assess inhibition of apoptosis by ischemin. Caspase assay and TUNEL assays were performed using Caspase-Glo 3/7 and DeadEnd kits from Promega. Caspase assay was performed on live cardiomyocytes in 96 wells plate on three different days. Similarly, TUNEL assay was performed in triplicate on three different days. […] After treatment with compounds overnight and then doxorubicin for 24 hours, the intensities of luminecnce were read. […]

CBP BRD = CBP BRD (Homo sapiens, UniProt Q92793); experiment: Bromodomain binding affinity (tryptophan fluorescence binding assay); conditions: over PCAF, BRD41, BAZ1B and BAZ2B
Protocol: Monitoring change of intrinsic tryptophan fluorescence of a protein induced by ligand binding can be used to determine ligand binding affinity (KD). This assay was used to assess ligand binding to the CBP BRD and ischemin binding to the BRDs from other transcription proteins as follows. The chemical ligands were prepared at 500-850 μM in the PBS buffer. Their serial dilutions by a factor of 1.5 in a 384-wells black plate were carried out using a Tecan EVO200 liquid handler down to a concentration of 0.5 nM. Protein was added to the compounds to a final concentration in each well of 5 μM. Tryptophan fluorescence of the protein was measured (with excitation set at 280 nm, emission at 350 nm) on a Tecan Safire2 reader. Inner filter correction was introduced to take into account the possible intrinsic fluorescence of the compound. […] KD was calculated based on the curve fitting.

CBP BRD, sequence (Q92793 1085-1192 limits assumed): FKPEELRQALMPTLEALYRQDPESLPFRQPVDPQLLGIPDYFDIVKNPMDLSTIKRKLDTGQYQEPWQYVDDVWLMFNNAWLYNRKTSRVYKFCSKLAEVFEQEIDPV

Q: Which “Direct inhibition of lysine acetyltransferase activity of CBP/p300” value (CBP/p300) does the source give for `Cc1cc(/N=N/c2cc(S(=O)(=O)O)c(C)cc2C)c(N)cc1O` [Ischemin/MS120, 5-(2-amino-4-hydroxy-5-methylphenylazo)-2,4-dimethylbenzenesulfonic acid] here?
A: ruled out

Q: And the Toxicity in cardiomyocytes (cardiomyocytes; ischemin alone)?
A: no toxicity

Q: What about the “Inhibition of doxorubicin-induced apoptosis (TUNEL)” value (cardiomyocytes; neonatal rat cardiomyocytes, doxorubicin 24 hours) of the same molecule?
A: effectively inhibit

Q: And the “Inhibition of p21 luciferase activity” value (p53; U20S cells, FIG. 1A)?
A: Dose-dependent inhibition

Q: What about the “Ability to inhibit p53-dependent p21 luciferase activity / p21 expression (SAR, words)” value (p53; compared with lead / ortho-methyl analogs) of the same molecule?
A: nearly completely suppresses

Q: What about the inhibition at 50 µM (p53; compounds at 50 μM, doxorubicin-treated U20S cells) of the same molecule?
A: 104%

Q: And the “Caspase 3/7 activity” value (caspase 3/7)?
A: inhibiting caspase 3/7 activity in a dose-dependent manner

Q: What about the “Selectivity for the CBP BRD over other human BRDs” value (CBP BRD) of the same molecule?
A: up to five-fold selectivity
